Experimental findings from patent US20060216235A1, “Cancerous disease modifying antibodies” (priority 2003, published 2006) are described below.

One data set deals with MCF-7. The arrangement: key to the marks not given beside the values. The conditions noted are these: purified antibody, 5 days; four experiments in triplicate.
The subject of a further data set is MB-468. Further details: key to the marks not given beside the values. The conditions noted are these: purified antibody, 5 days; four experiments in triplicate.
A further data set concerns MB-231. Further details: key to the marks not given beside the values. The conditions noted are these: purified antibody, 5 days; four experiments in triplicate.
The next data set deals with SW620. The conditions noted are these: purified antibody, 5 days; four experiments in triplicate.
A further data set concerns HT-29. Further details: key to the marks not given beside the values. The conditions noted are these: purified antibody, 5 days; four experiments in triplicate.
The test system of another data set is CCD 27sk. The conditions noted are these: purified antibody, 5 days; four experiments in triplicate; non-cancer cells.
The next data set has as its system NCI H460. The arrangement: key to the marks not given beside the values. The conditions noted are these: purified antibody, 5 days; four experiments in triplicate.
The next data set has as its system PC-3. The arrangement: key to the marks not given beside the values. The conditions noted are these: purified antibody, 5 days; four experiments in triplicate.
A further data set has as its system Hs888 Lu. The conditions noted are these: purified antibody, 5 days; four experiments in triplicate; non-cancer cells.
In the next data set the test system is OVCAR. The arrangement: key to the marks not given beside the values. The conditions noted are these: purified antibody, 5 days; four experiments in triplicate.
The subject of the next data set is SW1116. The conditions noted are these: purified antibody, 5 days; four experiments in triplicate.
Another data set deals with SKBR-3. The experiment in a line: Live/Dead cytotoxicity assay, hybridoma supernatants. The conditions noted are these: hybridoma supernatant, 5 days.
The test system of the next data set is MDA-MB-231. The data set is described as above. The conditions noted are these: hybridoma supernatant, 5 days.
The next data set concerns MDA-MB-468. The data set is described as above. The conditions noted are these: hybridoma supernatant, 5 days.

Molecules are shown by their SMILES.

Take `[N-]=[N+]=[N-].[Na+]` [NaN3]: the “cytotoxicity, BREAST MCF-7” value with MCF-7 was “+++”. For the same molecule, the “cytotoxicity, BREAST MB-468” value in the data set on MB-468 is “+++”. The “cytotoxicity, BREAST MB-231” value in the data set on MB-231 is reported as “+++”. For the same molecule, the “cytotoxicity, COLON SW620” value with SW620 is reported as “−”. Moreover, the “cytotoxicity, COLON HT-29” value with HT-29 is reported as “+++”. Further, the “cytotoxicity, NORMAL CCD27sk” value in the data set with CCD 27sk is given as “−”. Further, in the data set on NCI H460, the “cytotoxicity, LUNG NCI H460” value was “+++”. In the data set with PC-3, the “cytotoxicity, PROSTATE PC-3” value is “+++”. In addition, the “cytotoxicity, NORMAL Hs888 Lu” value in the data set with Hs888 Lu is listed as “−”. Moreover, the “cytotoxicity, OVARY OVCAR” value in the data set on OVCAR is given as “+++”. In addition, in the data set on SW1116, the “cytotoxicity, COLON SW1116” value is recorded as “−”.

As to `C[C@@H]1C[C@@H]([C@H](O)CC2CC(=O)NC(=O)C2)C(=O)[C@@H](C)C1` [Cycloheximide], in the data set with SKBR-3, the “Cytotoxicity (%) SKBR-3 Average” value was determined as 56%. In addition, the “Cytotoxicity (%) MB-231 Average” value with MDA-MB-231 was 49%. Further, the “Cytotoxicity (%) MB-468 Average” value in the data set on MDA-MB-468 is 24%.
